Results on five compounds are retold here after US20190390277A1, “DIAGNOSIS OF PARKINSON'S DISEASE ON THE BASIS OF DECREASED OVERALL TRANSLATION” (ÅBO AKADEMI UNIVERSITY, priority 2016, published 2019).

Experiment [1] deals with hippocampal neurons. Nature of the experiment: FUNCAT (AHA/Alexa-488) protein translation in hippocampal neurons. Conditions: for dose (as low as) at which protein synthesis was significantly increased: hippocampal neuron somas and dendrites; for level of de novo protein synthesis (fluorescence intensity): hippocampal neurons, soma and dendrites. The experiment is classed as cell-based, rat. From the text: Objective. To test whether Lrrk2 regulated ribosomal function in neurons, we measured the effect of three structurally independent inhibitors of Lrrk2 on de novo protein synthesis using non-canonical amino acid labeling. Rat hippocampal neurons were labelled using L-azido-homoalanine (AHA), a methionine analogue, followed by copper-I-catalyzed alkyne-azide cycloaddition of Alexa-488 with an alkyne moiety to visualize newly synthesized proteins, as previously de-scribed^8.
Methods. Measuring protein translation in hippocampal neurons using FUNCAT. To measure protein translation, hippocampal neurons were plated at densities of 100,000 cells per well on round coverslips (1.3 cm diameter) in 24-well plates. Protein translation was measured following 20 h after plating. Cells were washed once and incubated with methionine-free DMEM medium (Gibco, Thermo Fisher Scientific) supplemented with 2 mM glutamine. Then 1 mM L-azidohomoalanine (AHA) was added for 30 min. Cells were washed with 1 ml PBS and fixed with 4% paraformaldehyde. LRRK2 inhibitors, when used, were added in the methionine-free medium and retained throughout the AHA labelling procedure. Cells were permeabilized in block solution (0.25% Triton X100, 0.2% BSA, 5% sucrose, 10% horse serum in PBS), and washed 5 times with 1 ml of 3% BSA in PBS. In situ labeling with AHA was achieved using a click-it reaction to covalently Alexa-488, using reagents from ThermoFisher Life Technologies (catalogue #A10267). Coverslips were mounted in Mowiol containing 2.5% 1,4-Diazabicyclo[2.2.2]octane. Fluorescent images were acquired using a Leica DMRE microscope and Hamamatsu Photonics ORCA C4742-95 CCD camera and Zen software (Carl Zeiss). Mean fluorescence intensities were measured from regions of interest in the perisomal region. Dendrite measurements were taken from line intensities (10 μm lines from the soma into the dendrite).

In experiment [2] the test system is patient skin fibroblasts. Nature of the experiment: Nascent protein synthesis (AHA/Alexa-488) in PD patient skin fibroblasts. Type of experiment: cell-based, human. Conditions: sporadic and G2019S PD fibroblasts; 1 μM IN1 or 0.01 μM MLi-2. As for the experimental part: Methods. For FIG. 7, we measured mRNA translation in fibroblasts cultivated from patient skin biopsies using the non-canonical labelling approach outlined in example 4 with the following modifications. Fibroblasts were passaged upon reaching 95% confluence and assayed at passage 7-9. For measurement of nascent protein synthesis, fibroblasts at 48 h post plating were depleted of methionine and incubated with AHA, followed by AHA-click conjugation of Alexa-488 as described in the methods section of example 4. Average somatic fluorescent intensities were measured. As not all fibroblast lines could be assayed simultaneously, patient lines were paired with one or more control lines of equivalent passage and assayed on the same day.

In experiment [3] the test system is dopaminergic neurons. Description: Rotenone-induced neurite atrophy of TH-positive dopaminergic neurons in midbrain cultures. The experiment is classed as cell-based, rat. The conditions noted are these: 24 h; for effect on rotenone induced loss of neurites in dopaminergic neurons: LRRK2-IN1 1 μM, GSK-2578215A 1 μM, MLi-2 10 or 50 nM, with rotenone. As for the experimental part:
The cultures were immunostained for Tyrosine hydroxylase to identify dopaminergic neurons. The percentage of dopaminergic, TH-positive cells that had intact neurites are shown. […] Mean data +/− standard deviation from two independent experiments are shown. Over 300 cells were scored per condition. b) A representative fluorescence micrograph showing TH immunostaining (green) dopaminergic neurons is shown. (c,d) Treatment with three structurally different LRRK2 inhibitors, LRRK2-IN1 (1 μM), GSK-2578215A (1 μM) or MLi-2 (10 or 50 nM) prevented rotenone induced loss of neurites in the dopaminergic neurons. […] Standard errors of the mean are shown. #, p<0.0001.
Methods. Rotenone treatment of cell cultures—Midbrain neurons from P0 rat were plated at a density of 200,000 cells per well. At 3 days in vitro, cells were treated with rotenone in DMSO with or without IN1, GSK-2578215A of MLi-2 at the concentrations indicated. After 24 h, cells were fixed with 4% PFA in PBS and tyrosine hydroxylase (TH) was detected by standard immunostaining methods obvious to those skilled in the art. Cells were imaged using a Zeiss AxioVert 200M microscope. To measure atrophy, the % of TH-positive neurons with intact neurites was scored.

Experiment [4] has as its system dopaminergic neurons. Description: FUNCAT protein translation in midbrain cultures (dopaminergic neurons). Type of experiment: cell-based. Conditions: TH-positive neurons, 3 days post-plating. The text has this:
FIG. 6 uses click chemistry to label newly synthesised proteins with AHA. […] Dopaminergic neurons are visualised by tyrosine hydroxylase (TH) staining. a) Representative images of midbrain cultures treated with increasing concentrations of Lrrk2 IN2, and stained for TH is shown. b,c) protein translation in the somas of TH-positive and TH-negative cells is shown. d) The effect of anisomycin (to inhibit translation) on mid brain culture de novo protein synthesis is shown by representative images. e) Quantitative data from d is shown. p-values are shown on the graphs above the data points to which they apply.
Methods. To measure protein translation in dopaminergic neurons, mid brain cultures were plated at densities of 500,000 cells per well on round coverslips (1.3 cm diameter) in 24-well plates. At 3 days post-plating neurons underwent FUNCAT (see example 4). Dopaminergic neurons were detected by tyrosine hydroxylase immunofluorescence. Fluorescent intensity was measured as described in example 4 (methods).

In experiment [5] the test system is PBMCs and fibroblasts. Description: AHA labelling, biotin-alkyne enrichment and anti-biotin-HRP immunoblot of nascent proteins in PBMCs and fibroblasts. Type of experiment: cell-based, human. The conditions noted are these: AHA-labelled PBMCs and fibroblasts, streptavidin bead purification. The text has this: Patient samples were from the NINDS-Coriell Institute in the USA, the European Biobank in Milan and the Turku University Hospital (T.U.H.) cohort in Finland. a) A heat map showing intensity values for MS/MS-identified nascent proteins from AHA-labelled cells (fibroblasts and PBMCs). Nascent proteins were isolated following covalent linkage to alkyne-agarose beads. After tryptic digestion, the released peptides were sequenced by mass spectrometry and identified using Maxquant software. As negative controls to determine non-specific protein binding, cells were labelled with methionine instead of AHA. […] This approach yields a set of peptides that can be rapidly quantitated using a mass spectrometer using data dependant acquisition (DDA) using Selected Reaction Monitoring or Parallel Reaction Monitoring or by data independent acquisition (DIA) or using other types of mass spectrometry methods. […] It is compared to samples that were labelled with methionine instead of AHA. […]
Sepharose was washed 2× with 1 ml LiCl buffer (500 mM LiCl2, 100 mM Tris, pH 7.6, 0.1% TX100, 1 mM DTT), followed by 4×1 ml PBS washes. […] Samples were either in-gel digested with trypsin for MS/MS identification (example 1) or transferred to nitrocellulose for quantitative immunoblot detection using an anti-biotin, horse-radish peroxidase (HRP)-conjugated antibody (Cell Signalling Technology) (example 9b). […]

Experiment [6] addresses Lrrk2 (Homo sapiens, UniProt Q5S007). The conditions noted are these: blocks Lrrk2; read-out: biochemical IC50; cited from earlier work.
The subject of experiment [7] is BHK21 cells. Nature of the experiment: Protein translation by AHA labelling and click Alexa-488 in rotenone-treated BHK21 cells. The conditions noted are these: rotenone 100 nM, 1 μM LRRK2-IN1. The experiment is classed as cell-based. On the procedure:
Furthermore, LRRK2-G2019S directly impairs protein translation in a reconstituted translation system. a) LRRK2 activity is inferred using a phospho-specific antibody ([…]) that recognises the active form of LRRK2. b) Quantitative data from 6 independent repeats as shown in (a). c, d) To determine whether inhibition of LRRK2 kinase activity could recover normal protein translation in cultured cells, BHK21 cells were treated with or without rotenone (100 nM) in the presence or absence of the indicated concentration of LRRK2-IN1. Protein translation was measured using non-canonical amino acid labelling with AHA followed by copper-catalysed click addition of alkyne-Alexa-488. Representative fluorescent micrographs (c) and quantitative data (d) are shown. […] Standard errors of the mean are plotted. #, p<0.0001.
To determine whether inhibition of LRRK2 activity could recover normal translation in BHK21 cells following rotenone treatment, BHK21 cells with or without prior treatment (30 min) with LRRK2 inhibitor (1 or 10 μM of IN1) were treated with rotenone or carrier (control) as indicated. Translation was visualized following AHA labeling and immunofluorescence quantified as earlier.

For experiment [8], the target named is T1, Lrrk2 (Mesocricetus auratus, UniProt A0A1U7Q7Z2).
T1 construct: endogenous in cells; host or cells: BHK21 cells
Nature of the experiment: LRRK2 activity by phospho-S935-LRRK2 immunoblot in BHK21 cells. Type of experiment: cell-based. The conditions noted are these: intact BHK21 cells, rotenone 4 h. As for the experimental part:
Methods. To examine the effect of rotenone treatment on LRRK2 activity, BHK21 cells were treated with or without the indicated dose of rotenone for 4 h. Cells were lysed in Laemmli buffer and proteins separated by SDS PAGE. LRRK2 activity was determined by immunoblotting with an antibody detecting phospho-S935-LRRK2. Blots were reprobed with an antibody detecting LRRK2 to establish loading variability. LRRK2 activity was quantified by densitometry of gel exposures captured using the Gel Doc XR system (Biorad).

Experiment [9] has as its system hippocampal neurons. Description: S35-methionine metabolic labelling of de novo protein synthesis in hippocampal neurons. Type of experiment: cell-based. The conditions noted are these: rotenone 0.01-10 μM, 2 hr. On the procedure:
Methods. Measurement of protein translation using various S35-methioine-labelling—In order to model PD in vitro, hippocampal neurons were metabolically labelled with S35-methionine. Hippocampal neurons in 24 well plates were transferred to Met/Cys-free medium (Invitrogen, Gibco). Cells were treated with for 30 min 37 C, 5% CO2. 50 μl per well of labeling medium (100 μCi Met-S35/ml) was added and cells grown at 37°, 5% CO2 for 2 hr in the presence or absence of rotenone (0.01-10 μM). Cells were washed and lysed in 75 μl Laemmli lysis buffer. Samples were separated by SDS PAGE, incubated with EN3HANCE (NEN), gels dried and exposed to auto-radiographic film with intensifying screen to determine relative levels of de novo protein synthesis.

Entries after “also recorded” stand apart in the source; their conditions may differ.

Chain of Lrrk2 (Homo sapiens, UniProt Q5S007) (Q5S007 whole entry, species assumed): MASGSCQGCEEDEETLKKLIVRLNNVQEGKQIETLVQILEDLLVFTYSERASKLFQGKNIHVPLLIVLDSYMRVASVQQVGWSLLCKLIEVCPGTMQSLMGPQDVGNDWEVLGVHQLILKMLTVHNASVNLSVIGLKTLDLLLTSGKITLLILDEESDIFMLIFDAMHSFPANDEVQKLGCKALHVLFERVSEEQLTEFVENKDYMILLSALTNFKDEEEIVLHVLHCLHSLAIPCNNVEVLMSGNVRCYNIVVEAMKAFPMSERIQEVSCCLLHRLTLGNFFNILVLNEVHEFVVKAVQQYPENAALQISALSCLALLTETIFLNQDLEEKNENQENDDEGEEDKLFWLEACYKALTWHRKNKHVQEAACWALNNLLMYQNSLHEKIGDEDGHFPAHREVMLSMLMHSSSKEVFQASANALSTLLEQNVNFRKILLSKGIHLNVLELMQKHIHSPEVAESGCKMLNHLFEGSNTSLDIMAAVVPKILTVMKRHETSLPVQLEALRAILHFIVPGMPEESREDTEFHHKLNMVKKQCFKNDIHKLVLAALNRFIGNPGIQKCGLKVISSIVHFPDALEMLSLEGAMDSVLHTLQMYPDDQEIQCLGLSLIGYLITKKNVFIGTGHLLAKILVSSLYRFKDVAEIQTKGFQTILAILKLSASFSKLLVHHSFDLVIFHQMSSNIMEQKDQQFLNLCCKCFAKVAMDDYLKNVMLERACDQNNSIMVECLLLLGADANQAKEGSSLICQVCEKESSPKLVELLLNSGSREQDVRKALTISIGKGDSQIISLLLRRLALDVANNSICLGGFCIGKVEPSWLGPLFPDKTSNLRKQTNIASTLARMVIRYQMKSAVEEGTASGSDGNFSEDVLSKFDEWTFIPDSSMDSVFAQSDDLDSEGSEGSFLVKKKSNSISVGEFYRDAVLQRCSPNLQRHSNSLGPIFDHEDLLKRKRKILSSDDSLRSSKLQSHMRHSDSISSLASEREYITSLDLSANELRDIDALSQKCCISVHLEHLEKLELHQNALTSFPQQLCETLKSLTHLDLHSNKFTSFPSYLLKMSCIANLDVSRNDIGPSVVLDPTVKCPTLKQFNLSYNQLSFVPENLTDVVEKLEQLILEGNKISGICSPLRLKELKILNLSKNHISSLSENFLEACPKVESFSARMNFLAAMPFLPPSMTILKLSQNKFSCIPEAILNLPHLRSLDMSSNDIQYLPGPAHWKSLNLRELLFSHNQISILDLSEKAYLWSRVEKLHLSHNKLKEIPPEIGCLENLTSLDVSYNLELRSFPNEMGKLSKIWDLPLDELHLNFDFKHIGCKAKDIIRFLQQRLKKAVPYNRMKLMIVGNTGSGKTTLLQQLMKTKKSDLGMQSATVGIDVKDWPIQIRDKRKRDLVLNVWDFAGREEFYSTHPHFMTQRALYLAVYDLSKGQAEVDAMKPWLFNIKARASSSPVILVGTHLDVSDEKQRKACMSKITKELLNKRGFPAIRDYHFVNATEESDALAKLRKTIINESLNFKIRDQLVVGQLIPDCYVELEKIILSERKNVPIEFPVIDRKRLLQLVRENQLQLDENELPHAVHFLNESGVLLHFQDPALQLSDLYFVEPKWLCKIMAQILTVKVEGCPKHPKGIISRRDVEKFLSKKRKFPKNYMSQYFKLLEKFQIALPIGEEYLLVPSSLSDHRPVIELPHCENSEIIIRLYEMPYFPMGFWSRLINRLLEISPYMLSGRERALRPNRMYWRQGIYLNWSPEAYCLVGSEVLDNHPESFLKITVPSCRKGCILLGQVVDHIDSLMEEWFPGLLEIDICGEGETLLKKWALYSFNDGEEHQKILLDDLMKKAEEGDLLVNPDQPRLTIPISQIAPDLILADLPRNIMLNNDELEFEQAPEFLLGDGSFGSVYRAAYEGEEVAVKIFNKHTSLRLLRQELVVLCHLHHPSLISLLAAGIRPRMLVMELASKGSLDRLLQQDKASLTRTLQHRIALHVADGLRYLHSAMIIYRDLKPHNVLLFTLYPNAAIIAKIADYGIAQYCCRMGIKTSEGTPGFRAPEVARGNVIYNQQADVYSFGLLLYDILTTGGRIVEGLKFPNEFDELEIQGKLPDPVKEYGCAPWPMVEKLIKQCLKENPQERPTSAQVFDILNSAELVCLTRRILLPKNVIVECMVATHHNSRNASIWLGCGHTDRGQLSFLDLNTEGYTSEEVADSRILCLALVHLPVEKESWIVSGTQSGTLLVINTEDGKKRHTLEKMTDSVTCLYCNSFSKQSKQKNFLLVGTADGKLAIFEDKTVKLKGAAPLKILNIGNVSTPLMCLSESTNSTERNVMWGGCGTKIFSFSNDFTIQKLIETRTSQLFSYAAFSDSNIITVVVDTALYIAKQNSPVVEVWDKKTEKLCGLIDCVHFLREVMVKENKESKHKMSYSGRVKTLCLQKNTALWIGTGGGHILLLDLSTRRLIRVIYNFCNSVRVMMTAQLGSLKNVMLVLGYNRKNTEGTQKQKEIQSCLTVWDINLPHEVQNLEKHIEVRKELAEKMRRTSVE
T1 sequence (A0A1U7Q7Z2 1-2527): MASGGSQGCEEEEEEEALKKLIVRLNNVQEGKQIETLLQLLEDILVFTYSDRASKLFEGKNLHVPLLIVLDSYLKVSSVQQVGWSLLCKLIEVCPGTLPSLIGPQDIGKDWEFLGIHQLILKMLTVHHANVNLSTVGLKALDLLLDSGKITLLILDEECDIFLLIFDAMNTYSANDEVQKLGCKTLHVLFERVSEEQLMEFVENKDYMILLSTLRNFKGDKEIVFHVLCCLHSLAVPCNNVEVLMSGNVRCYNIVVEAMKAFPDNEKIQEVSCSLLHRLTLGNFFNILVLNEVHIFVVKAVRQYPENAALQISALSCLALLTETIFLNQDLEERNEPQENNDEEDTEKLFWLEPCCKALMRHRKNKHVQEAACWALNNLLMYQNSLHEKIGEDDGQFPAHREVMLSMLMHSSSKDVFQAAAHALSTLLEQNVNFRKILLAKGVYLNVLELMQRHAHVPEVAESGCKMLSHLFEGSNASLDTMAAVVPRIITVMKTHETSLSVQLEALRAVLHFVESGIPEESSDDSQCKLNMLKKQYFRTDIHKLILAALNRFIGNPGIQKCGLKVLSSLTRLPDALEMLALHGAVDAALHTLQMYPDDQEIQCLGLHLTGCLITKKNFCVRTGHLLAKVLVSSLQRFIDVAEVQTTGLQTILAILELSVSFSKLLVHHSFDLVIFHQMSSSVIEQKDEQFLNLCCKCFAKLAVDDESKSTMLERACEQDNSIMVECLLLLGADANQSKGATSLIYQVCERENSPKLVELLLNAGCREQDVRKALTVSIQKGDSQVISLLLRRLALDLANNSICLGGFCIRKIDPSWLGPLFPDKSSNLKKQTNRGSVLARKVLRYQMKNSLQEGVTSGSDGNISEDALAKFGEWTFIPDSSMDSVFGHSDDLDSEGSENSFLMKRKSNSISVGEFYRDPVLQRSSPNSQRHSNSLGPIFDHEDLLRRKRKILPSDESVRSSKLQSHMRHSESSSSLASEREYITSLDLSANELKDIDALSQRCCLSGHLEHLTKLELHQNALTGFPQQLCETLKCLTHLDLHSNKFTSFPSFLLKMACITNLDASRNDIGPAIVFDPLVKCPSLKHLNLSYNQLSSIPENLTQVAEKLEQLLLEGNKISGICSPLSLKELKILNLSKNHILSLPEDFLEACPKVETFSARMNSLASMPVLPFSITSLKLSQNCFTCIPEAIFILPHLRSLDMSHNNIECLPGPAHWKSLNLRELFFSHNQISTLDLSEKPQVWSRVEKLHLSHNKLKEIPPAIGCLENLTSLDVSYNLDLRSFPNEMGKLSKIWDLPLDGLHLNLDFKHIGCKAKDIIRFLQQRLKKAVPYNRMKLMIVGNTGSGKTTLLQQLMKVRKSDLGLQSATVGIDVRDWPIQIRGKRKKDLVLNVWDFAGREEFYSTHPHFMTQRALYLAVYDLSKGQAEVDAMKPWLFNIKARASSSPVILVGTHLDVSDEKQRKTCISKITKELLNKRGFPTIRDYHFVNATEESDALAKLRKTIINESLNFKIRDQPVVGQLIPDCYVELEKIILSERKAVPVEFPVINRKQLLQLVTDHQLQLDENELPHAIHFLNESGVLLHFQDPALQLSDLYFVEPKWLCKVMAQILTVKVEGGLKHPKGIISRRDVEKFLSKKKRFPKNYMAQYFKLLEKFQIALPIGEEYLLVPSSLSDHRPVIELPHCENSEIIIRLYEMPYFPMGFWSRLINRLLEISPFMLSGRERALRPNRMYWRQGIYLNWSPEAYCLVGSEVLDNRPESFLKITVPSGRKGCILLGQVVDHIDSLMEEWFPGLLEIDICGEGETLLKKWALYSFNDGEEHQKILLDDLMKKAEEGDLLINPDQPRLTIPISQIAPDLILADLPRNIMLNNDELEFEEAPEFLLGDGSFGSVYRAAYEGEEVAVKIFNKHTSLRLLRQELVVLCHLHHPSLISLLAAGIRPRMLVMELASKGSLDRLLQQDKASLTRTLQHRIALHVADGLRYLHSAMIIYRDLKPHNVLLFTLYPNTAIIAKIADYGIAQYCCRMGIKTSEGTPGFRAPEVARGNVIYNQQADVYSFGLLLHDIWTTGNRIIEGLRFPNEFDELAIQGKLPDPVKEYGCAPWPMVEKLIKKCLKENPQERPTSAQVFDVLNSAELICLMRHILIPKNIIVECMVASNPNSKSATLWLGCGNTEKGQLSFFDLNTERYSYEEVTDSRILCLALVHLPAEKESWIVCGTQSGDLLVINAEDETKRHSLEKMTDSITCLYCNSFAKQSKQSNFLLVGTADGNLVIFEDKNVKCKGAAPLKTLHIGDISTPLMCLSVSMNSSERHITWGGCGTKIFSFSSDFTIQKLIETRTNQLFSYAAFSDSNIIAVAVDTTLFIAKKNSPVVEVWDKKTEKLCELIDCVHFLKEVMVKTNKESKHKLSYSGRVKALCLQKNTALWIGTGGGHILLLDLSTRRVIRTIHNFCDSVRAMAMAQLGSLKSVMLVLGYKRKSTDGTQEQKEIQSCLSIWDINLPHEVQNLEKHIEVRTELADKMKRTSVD

As to 3-(4-Pyrinimidyl) Indazole [MLi-2], in experiment [1], the “dose (as low as) at which protein synthesis was significantly increased” value is 0.01 µM and the “level of de novo protein synthesis (fluorescence intensity)” value is listed as “increased”. In addition, in experiment [2], the “reversal of decreased protein synthesis in PD patient fibroblasts” value is on record as “reversed to a normal level”. Besides, the “effect on rotenone induced loss of neurites in dopaminergic neurons” value (from here on “effect on rotenone induced loss”) in [3] is listed as “prevented”.
For the compound `COc1ccc(C[C@H]2NC[C@H](O)[C@H]2OC(C)=O)cc1` [Anisomycin], in experiment [1], the “level of de novo protein synthesis (fluorescence intensity)” value is on record as “effectively inhibited”. Besides, in experiment [4], the “protein translation (fluorescence)” value is “effectively reduced”. The “anti-biotin immunoblot signal of nascent proteins” value in experiment [5] is reported as “no signal”.
For `O=C(Nc1cccnc1)c1cc(-c2ccnc(F)c2)ccc1OCc1ccccc1` [GSK-2578215A], the “dose (as low as) at which protein synthesis was significantly increased” value in experiment [1] worked out at 0.1 µM. The “effect on rotenone induced loss” value in [3] was “prevented”.
Turning to `COc1cc(C(=O)N2CCC(N3CCN(C)CC3)CC2)ccc1Nc1ncc2c(n1)N(C)c1ccccc1C(=O)N2C` [LRRK2-IN1], the “dose (as low as) at which protein synthesis was significantly increased” value in experiment [1] came to 0.1 µM. In addition, the “reversal of decreased protein synthesis in PD patient fibroblasts” value in experiment [2] is recorded as “reversed”. In addition, in experiment [6], the IC50 was 10 nM. For the same compound, in experiment [7], the “protein translation level after rotenone” value is on record as “recovered to control level”. For the same compound, the “effect on rotenone induced loss” value in experiment [3] is given as “prevented”.
As to `C=C(C)[C@H]1Cc2c(ccc3c2O[C@@H]2COc4cc(OC)c(OC)cc4[C@@H]2C3=O)O1` [Rotenone], the “percentage of TH-positive cells with intact neurites” value in experiment [3] (rotenone 0-100 nM) is listed as “induced atrophy; also recorded: dose dependent loss of neurites”. Also, the “LRRK2 activity (phospho-S935-LRRK2)” value in [8] is “dose dependently increased”. Besides, the “de novo protein synthesis (S35-methionine labelling)” value in experiment [9] is “dose-dependently decreased”.
